In one assay the target is T1, CTX-M-15 (Escherichia coli, UniProt Q9EXV5).
T1 construct: made in house
As to the kind of experiment: β-lactamase acylation exchange (intact protein mass spectrometry). The following applies: donor CTX-M-15, acceptor OXA-48, ambient temperature. In kind it is binding. Here is the method:
(§1) β-Lactamase acylation exchange experiments and intact protein mass spectrometry were performed as described previously.[10] OXA-48 was used as the acceptor enzyme in most cases because of the stability of the ETX1317–OXA-48 complex. When OXA-48 was the donor enzyme, CTX-M-15 was used as the acceptor. Each β-lactamase (5 μM) was incubated with or without 25 μM ETX1317 in a 60 μL volume of 50 mM HEPES (pH 7.0) buffer for 1 h at ambient temperature. The samples were diluted to 400 μL with ice-cold buffer and then concentrated to ∼40 μL with Microcon YM-10 centrifugal ultrafilters (Millipore-Sigma, Burlington, MA) at 14 000g for 45 min at 4 °C. The retentates were rediluted to 400 μL with ice-cold buffer and reconcentrated as before. This was repeated a further time, leaving no significant amount of unbound ETX1317. The sample volumes were restored to 60 μL with ice-cold buffer and the samples were divided into two equal aliquots of 30 μL. Buffer (6 μL) was added to one aliquot, and 6 μL of acceptor enzyme was added to the other. The final acceptor enzyme concentrations were 5 μM. Samples were incubated at ambient temperature for the times indicated and then stored at −80 °C until analysis. LC-MS analysis was performed on a Triple TOF5600+ (AB Sciex, Redwood City, CA) equipped with a DuoSpray Ion Source and a Shimadzu LC 20-AD HPLC system (Shimadzu Scientific Instruments, Marlborough, MA). A 2 μL portion of each sample was injected onto a Poroshell 300SB-C8 75 × 2.1 mm, 5 μm column (Agilent) at 30 °C with a gradient of acetonitrile (5–95%) in 0.1% formic acid for 3 min followed by a 1 min hold at 95% before returning to 5% acetonitrile at a flow rate of 0.4 mL/min. The mass spectrometer was operated in positive ion and intact protein mode with source temperature of 450 °C. LC-MS data were acquired in the TOF MS mode for m/z+ from 600 to 2000. Nebulizer gas (GS1), heater gas (GS2), and curtain gas were set at 60, 70, and 30 psi, respectively. Ion spray voltage was 5500 V. Declustering voltage was 100 V, and collision energy was 10 V. Peak masses for protein species were determined following spectrum deconvolution using PeakView version 2.2 software. Mass accuracy of intact proteins is ±1 Da.

The target in a further assay is T2, Enterobacter cloacae P99 (Enterobacter cloacae, UniProt P05364).
T2 construct: made in house
The assay is described as above. It counts as binding. The conditions noted are these: donor P99, acceptor OXA-48, ambient temperature. Here is the method: as §1

Another assay has as its target T3, KPC-2 (Klebsiella pneumoniae, UniProt Q9F663).
T3 construct: made in house
The assay is described as above. The conditions noted are these: donor KPC-2, acceptor OXA-48, 19 h, ambient temperature. In kind it is binding. Here is the method:
as §1

A further assay deals with T4, OXA-48 (Klebsiella pneumoniae, UniProt Q6XEC0).
T4 construct: made in house
The description is as above. The conditions noted are these: donor OXA-48, acceptor CTX-M-15, 19 h, ambient temperature, no added bicarbonate. It counts as binding. As to the method: as §1

The target of assay [1] is T5, Pseudomonas aeruginosa AmpC (Pseudomonas aeruginosa, UniProt P24735).
T5 construct: made in house
Described as above. In kind it is binding. The conditions noted are these: acceptor OXA-48, 1, 2 and 17 h, ambient temperature. As to the method: as §1

The target of another assay is T6, SHV-5 (Klebsiella pneumoniae, UniProt P0A3M1).
T6 construct: made in house
The description is as above. It counts as binding. The following applies: donor SHV-5, acceptor OXA-48, ambient temperature. As to the method:
as §1

Assay [2] deals with T7, TEM-1 (Escherichia coli, UniProt P62593).
T7 construct: made in house
Described as above. It counts as binding. The conditions noted are these: donor TEM-1, acceptor OXA-48, ambient temperature. As to the method: as §1

Assay [3] has as its target T7, TEM-1. Also on record: method as in PMID 28665414, PMID 32658473. The conditions noted are these: TEM-1; equilibrium dissociation constant, inhibition not time-dependent on 30 s time scale; ref 6 and 7; cited from earlier work.

T7 sequence (P62593 24-286 limits assumed): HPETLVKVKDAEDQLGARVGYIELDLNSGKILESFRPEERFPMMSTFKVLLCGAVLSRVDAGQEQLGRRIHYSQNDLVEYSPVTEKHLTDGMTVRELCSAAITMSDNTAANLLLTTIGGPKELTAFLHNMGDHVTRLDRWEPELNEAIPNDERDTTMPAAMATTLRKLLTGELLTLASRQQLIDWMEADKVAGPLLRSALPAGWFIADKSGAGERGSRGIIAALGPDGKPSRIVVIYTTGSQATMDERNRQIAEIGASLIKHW
T5 sequence (P24735 27-397): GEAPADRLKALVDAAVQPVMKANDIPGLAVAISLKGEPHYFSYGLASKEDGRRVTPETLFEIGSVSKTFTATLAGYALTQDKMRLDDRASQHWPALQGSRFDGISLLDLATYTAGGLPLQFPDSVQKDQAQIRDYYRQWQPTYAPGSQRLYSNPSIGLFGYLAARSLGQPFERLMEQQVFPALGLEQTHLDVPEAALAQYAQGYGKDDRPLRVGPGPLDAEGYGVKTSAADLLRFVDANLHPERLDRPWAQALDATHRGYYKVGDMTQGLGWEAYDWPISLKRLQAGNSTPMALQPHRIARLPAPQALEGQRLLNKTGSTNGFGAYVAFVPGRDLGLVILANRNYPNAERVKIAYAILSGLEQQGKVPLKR
T1 sequence (Q9EXV5 29-291, species assumed): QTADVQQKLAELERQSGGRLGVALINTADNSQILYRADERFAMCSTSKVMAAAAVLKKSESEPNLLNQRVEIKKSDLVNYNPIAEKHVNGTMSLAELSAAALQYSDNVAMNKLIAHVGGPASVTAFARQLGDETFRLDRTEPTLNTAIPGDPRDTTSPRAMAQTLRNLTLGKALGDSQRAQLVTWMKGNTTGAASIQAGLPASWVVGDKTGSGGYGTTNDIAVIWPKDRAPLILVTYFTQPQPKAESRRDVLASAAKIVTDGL
T3 sequence (Q9F663 25-293, looked up, species assumed): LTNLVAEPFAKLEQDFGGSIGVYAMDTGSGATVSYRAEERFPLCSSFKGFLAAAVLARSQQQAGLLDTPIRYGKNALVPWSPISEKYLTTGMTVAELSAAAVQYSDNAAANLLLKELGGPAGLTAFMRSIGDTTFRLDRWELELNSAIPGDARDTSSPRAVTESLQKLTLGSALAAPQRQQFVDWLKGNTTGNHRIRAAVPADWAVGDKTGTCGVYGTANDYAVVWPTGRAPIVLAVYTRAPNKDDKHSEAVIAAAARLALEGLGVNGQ
T6 sequence (P0A3M1 22-286, species assumed): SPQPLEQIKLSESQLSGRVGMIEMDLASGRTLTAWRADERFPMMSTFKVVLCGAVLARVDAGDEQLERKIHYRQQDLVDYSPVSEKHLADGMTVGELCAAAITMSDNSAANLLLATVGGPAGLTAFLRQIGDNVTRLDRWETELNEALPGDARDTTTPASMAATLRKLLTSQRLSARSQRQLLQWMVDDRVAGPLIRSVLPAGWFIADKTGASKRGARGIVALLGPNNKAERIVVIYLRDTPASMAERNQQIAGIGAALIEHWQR
T4 sequence (Q6XEC0 23-265, looked up, species assumed): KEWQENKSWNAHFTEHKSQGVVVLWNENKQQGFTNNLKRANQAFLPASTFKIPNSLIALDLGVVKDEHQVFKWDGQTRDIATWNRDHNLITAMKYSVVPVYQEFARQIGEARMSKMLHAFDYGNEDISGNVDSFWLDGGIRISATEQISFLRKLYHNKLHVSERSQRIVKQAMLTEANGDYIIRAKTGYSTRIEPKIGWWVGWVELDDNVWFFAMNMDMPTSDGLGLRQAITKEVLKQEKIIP
T2 sequence (P05364 21-381): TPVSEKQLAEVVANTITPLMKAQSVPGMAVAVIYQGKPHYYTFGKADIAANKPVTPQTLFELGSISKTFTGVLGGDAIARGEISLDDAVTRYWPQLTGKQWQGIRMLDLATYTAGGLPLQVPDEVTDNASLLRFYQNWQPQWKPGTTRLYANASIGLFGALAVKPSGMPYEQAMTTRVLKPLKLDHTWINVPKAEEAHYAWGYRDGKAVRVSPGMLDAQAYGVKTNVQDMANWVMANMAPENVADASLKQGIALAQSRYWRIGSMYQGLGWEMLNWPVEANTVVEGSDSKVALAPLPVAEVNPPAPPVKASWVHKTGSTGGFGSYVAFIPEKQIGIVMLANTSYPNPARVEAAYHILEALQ

In the case of `CC1=C[C@@H](C(N)=O)N2C[C@@H]1N(O[C@H](F)C(=O)O)C2=O` [ETX1317], the “acylation exchange (recyclization and dissociation of intact inhibitor) from donor to acceptor enzyme” value on CTX-M-15 is “observed”; on Enterobacter cloacae P99, “observed”; on KPC-2, “observed”; at OXA-48, “lack of acylation exchange”; in assay [1], “observed”; on SHV-5 it was “observed”. In addition, the “acylation exchange (recyclization and dissociation of intact inhibitor) from donor to acceptor enzyme” value at TEM-1 [2] is recorded as “observed”. Further, on TEM-1 [3], the Ki was 340 pM.

Source of the values: publication PMC7837508, “Interactions of the Diazabicyclooctane Serine β-Lactamase Inhibitor ETX1317 with Target Enzymes” (ACS Infectious Diseases, 2020).
